The values that follow are results of earlier work, collected in patent US8618286B2, “Benzoxazines, benzothiazines, and related compounds having NOS inhibitory activity” (NeurAxon, Inc., priority 2008, dated 2013).

Molecules are shown by their SMILES.

In data set [1] the test system is migraine. As to conditions: human, single i.v. administration; cited from earlier work.
Data set [2] deals with persistent shock. To be noted: human, up to 30 days; cited from earlier work.
Data set [3] concerns migraine attack. To be noted: human, open pilot study; cited from earlier work.
For data set [4], the system named is cardiogenic shock. As to conditions: human, randomized trial of 30 patients; reduced from 67%; cited from earlier work.

Take `CN=C(N)NCCC[C@H](N)C(=O)O.Cl` [L-NMMA, L-N^G methylarginine hydrochloride]: the response rate in data set [1] was 67%. For the same compound, in data set [2], the survival rate is 72%. Take `C/C1=C2/[N-][C@H]([C@H](CC(N)=O)[C@@]2(C)CCC(=O)NC[C@@H](C)OP(=O)([O-])O[C@H]2[C@@H](O)[C@@H](n3cnc4cc(C)c(C)cc43)O[C@@H]2CO)[C@]2(C)N=C(/C(C)=C3N=C(/C=C4N=C1[C@@H](CCC(N)=O)C\4(C)C)[C@@H](CCC(N)=O)[C@]\3(C)CC(N)=O)[C@@H](CCC(N)=O)[C@]2(C)CC(N)=O.[Co+3].[OH-]` [hydroxycobalamin]: the “patients with a reduction in the frequency of migraine attack of 50%” value in data set [3] is 53%. Turning to `COC(=O)[C@@H](N)CCCNC(=N)N[N+](=O)[O-]` [L-NAME, N^G-Nitro-L-arginine methyl ester], the patient mortality in data set [4] is reported as 27%.
